# Measurements from patent US20120237482A1, “METHODS FOR TREATMENT OF NEUROLOGICAL DISORDERS BY MODULATION OF MICROGLIAL ACTIVATION” (priority 2011, published 2012).
# Experiment: Case report: with autism given ibuprofen for children during a 7-day fever
# Type: in vivo, human
# Conditions: one child, ibuprofen about 30-40 mg/kg throughout 7 days
# Description: Subject […] was born […], and developed normally until reaching […] (the “regression time”). […] The […] developed autistic symptoms after the regression time, such as ceasing to respond to their name and losing the skills they had attained so far as their neurological health progressively deteriorated. At or about the same time of the regression time, the […] also developed other medical problems including Vitiligo. After an evaluation, a therapist from the Early Child Intervention Program advised the parents that the child had red flags for autism. Following a viral and bacterial infection […], the […]'s autistic symptoms became severe. The […] was officially diagnosed with autism by a developmental pediatrician, and qualified for the Preschool Program for Children With Disabilities (PPCD). While in the PPCD program, the […] was evaluated by a speech therapist who diagnosed them with severe speech impairments. A video of the child showing severe autistic symptoms is available at http://www.youtube.com/watch?v=GbEeNJgaIQQ. When the child turned […] they developed another viral infection and developed a high fever that lasted over 7 days. […] They were more aware, calm and was saying more words. […] Gastrointestinal problems caused by the ibuprofen soon surfaced, however. […]
smiles,measurement,setting,value
CC(C)Cc1ccc(C(C)C(=O)O)cc1 (centres unmarked) [ibuprofen],autistic symptoms while under ibuprofen,"autism, viral infection with fever",autistic symptoms decreased
same,gastrointestinal side effects of ibuprofen,little food intake,gastrointestinal lesions and ulcers caused by the ibuprofen
